The structures appear in SMILES notation. Bounds are passed on as bounds.

Test [1] deals with T1, glutathione S-transferase (GST)-linked full-length human Syk protein (Homo sapiens, UniProt P43405).
T1 construct: glutathione S-transferase (GST)-linked full-length human Syk protein; purchased Carna Biosciences; host or cells: Baculovirus expression system
The experiment in a line: Syk enzyme assay. Type of test: biochemical. Conditions: 0.83 nM Syk, time-resolved fluorescence; read-out: IC50 of Syk-inhibitory activity. In short, it runs like this:
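Phosphotyrosine on a biotin-peptide substrate (0.5 μM) was read by time-resolved fluorescence at 615 and 665 nm with Eu-anti-pTyr antibody and APC-streptavidin after 1 h EDTA stop.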

The subject of test [2] is mouse thrombocytopenia induced by anti-mouse CD41 antibody. Description: Mouse thrombocytopenia model. Type of test: in vivo. To be noted: Platelet, female BALB/c mice, 50 mg/kg 1 hour before anti-CD41 antibody, blood sampling 4 hours after antibody, read-out: improvement of platelet count compared with the control group. The method, then: Test compounds were tested to examine effects upon mouse thrombocytopenia. Each test compound (50 mg/kg) was administered to 5- to 7-week-old female BALB/c mice (Charles River Laboratories Japan, Inc.). One hour thereafter, an anti-mouse CD41 ([…]) antibody (SCB) (1 μg (200 μl)) was intravenously administered to each mouse so as to induce thrombocytopenia. Four hours after administration of the anti-CD41 antibody, blood sampling from the postcava was performed. The platelet count was determined using an automated hematology analyzer.

The test system of test [3] is THP-1 cells (TNFα secretion on human IgG-coated plate). Description: TNFα generation assay. Type of test: cell-based. To be noted: IFN-γ differentiated THP-1 cells, 7 hours, AlphaLISA, read-out: IC50 of TNFα generation inhibitory activity. In short, it runs like this:
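Secreted TNFα was measured by AlphaLISA after 7 h of culture on human IgG-coated wells (coating at 10 μg/ml), with 5×10^4 cells/well. Before plating, the cells had been treated with compound for 30 min at room temperature. The cells were macrophage-like THP-1, produced by a 2-day exposure to 10 ng/ml IFN-γ.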
Background: Bead proximity is the source of the signal in Alpha formats.

In test [4] the test system is THP-1 cells (phagocytosis of opsonized Escherichia coli). Description: Antibody-dependent phagocytosis assay. Type of test: cell-based. Conditions: Homo sapiens; IFNγ differentiated THP-1 cells, opsonized pHrodo Escherichia coli, 3 hours; read-out: IC50 upon phagocytosis inhibition. In short, it runs like this:
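Read-out was imaging-based quantification of pHrodo-labeled, antibody-opsonized E. coli taken up by Calcein AM-stained viable cells after 3 h at 37° C. The cells were IFNγ-differentiated THP-1 macrophages (10 ng/ml, 2 days), preincubated with compound for 30 min at room temperature.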

In the case of `Cc1ncc(Nc2nc(N[C@@H]3CCCC[C@@H]3N)c(F)cc2C(N)=O)cc1F` [Example 2-142, 6-(((1R,2S)-2-aminocyclohexyl)amino)-5-fluoro-2-((5-fluoro-6-methylpyridin-3-yl)amino)nicotinamide], the IC50 was 10 to 50 nM in test [1], 65 to 130 nM in test [3] and less than 1000 nM in test [4]. Moreover, the change in vivo at 50 mg/kg in test [2] is not below 50%.

Turning to `COCCn1nc(OC)c2cc(Nc3nc(N[C@@H]4CCCC[C@@H]4N)c(F)cc3C(N)=O)ccc21` [Example 2-123, 6-(((1R,2S)-2-aminocyclohexyl)amino)-5-fluoro-2-((3-methoxy-1-(2-methoxyethyl)-1H-indazol-5-yl)amino)nicotinamide], the IC50 in test [1] was less than 10 nM; in test [3] it was 65 to 130 nM; in test [4], less than 1000 nM. Besides, in test [2], the change in vivo at 50 mg/kg is not below 50%.

As for `CN(C)c1nn(C)c2c(F)cc(Nc3nc(N[C@@H]4CCOC[C@@H]4N)c(F)cc3C(N)=O)cc12` [Example 2-213, 6-(((3R,4R)-3-aminotetrahydro-2H-pyran-4-yl)amino)-2-((3-(dimethylamino)-7-fluoro-1-methyl-1H-indazol-5-yl)amino)-5-fluoronicotinamide], the IC50 in test [1] is less than 10 nM; in test [3], 65 to 130 nM; in test [4], less than 1000 nM. In addition, in test [2], the change in vivo at 50 mg/kg was not below 50%.

As to `CCC[C@@H](Nc1nc(Nc2cnc3c(c2)c(OC)nn3C)c(C(N)=O)cc1F)[C@H](C)N` [Example 2-252, 6-(((2S,3R)-2-aminohexan-3-yl)amino)-5-fluoro-2-((3-methoxy-1-methyl-1H-pyrazolo[3,4-b]pyridin-5-yl)amino)nicotinamide], the IC50 is less than 10 nM in test [1], 130 to 200 nM in test [3] and less than 1000 nM in test [4]. Besides, the change in vivo at 50 mg/kg in test [2] is not below 50%.

On to `Cc1nn(CC(F)F)c2ccc(Nc3nc(N[C@@H]4CCOC[C@@H]4N)c(F)cc3C(N)=O)cc12` [Example 2-328, 6-(((3R,4R)-3-aminotetrahydro-2H-pyran-4-yl)amino)-2-((1-(2,2-difluoroethyl)-3-methyl-1H-indazol-5-yl)amino)-5-fluoronicotinamide], for which the results for the IC50 in test [1] and in test [3] were less than 10 nM and less than 65 nM, respectively. The change in vivo at 50 mg/kg in test [2] was not below 50%.

With `CCC[C@@H](Nc1nc(Nc2ccc3c(c2)c(N(C)C)nn3C)c(C(N)=O)cc1F)[C@H](C)N` [Example 2-87, 6-(((2S,3R)-2-aminohexan-3-yl)amino)-2-((3-(dimethylamino)-1-methyl-1H-indazol-5-yl)amino)-5-fluoronicotinamide], the results for the IC50 in test [1], in test [3] and in test [4] were less than 10 nM, 130 to 200 nM and 1000 to 3000 nM, respectively. For the same molecule, the change in vivo at 50 mg/kg in test [2] is not below 50%.

With `COCCn1ncc2c(Nc3nc(N[C@@H]4CCCC[C@@H]4N)c(F)cc3C(N)=O)cccc21` [Example 2-302, 6-(((1R,2S)-2-aminocyclohexyl)amino)-5-fluoro-2-((1-(2-methoxyethyl)-1H-indazol-4-yl)amino)nicotinamide], the IC50 in test [1] was less than 10 nM; in test [3] it was 130 to 200 nM; in test [4] it was 1000 to 3000 nM. Also, the change in vivo at 50 mg/kg in test [2] is not below 50%.

Turning to `CC[C@@H](Nc1nc(Nc2cnc3c(c2)c(OC)nn3C)c(C(N)=O)cc1F)[C@H](C)N` [Example 2-251, 6-(((2S,3R)-2-aminopentan-3-yl)amino)-5-fluoro-2-((3-methoxy-1-methyl-1H-pyrazolo[3,4-b]pyridin-5-yl)amino)nicotinamide], the values for the IC50 in test [1] and in test [3] were 10 to 50 nM and 130 to 200 nM, respectively. Moreover, the change in vivo at 50 mg/kg in test [2] is not below 50%.

Take `Cc1ncc(Nc2nc(N[C@H](c3cccs3)[C@H](C)N)c(F)cc2C(N)=O)cc1-n1nccn1` [Example 2-415, 6-(((1S,2S)-2-amino-1-(thiophen-2-yl)propyl)amino)-5-fluoro-2-((6-methyl-5-(2H-1,2,3-triazol-2-yl)pyridin-3-yl)amino)nicotinamide]: the values for the IC50 in test [1] and in test [3] were less than 10 nM and 130 to 200 nM, respectively. Moreover, the change in vivo at 50 mg/kg in test [2] was not below 50%.

As to `COc1cc(Nc2nc(N[C@H](C3CCC3)[C@H](C)N)c(F)cc2C(N)=O)cc(OC)c1` [Example 2-28], the IC50 in test [1] was less than 10 nM; in test [3], 65 to 130 nM; in test [4], less than 1000 nM. In addition, in test [2], the change in vivo at 50 mg/kg was not below 50%.

Take `Cn1nc(OC(F)F)c2cc(Nc3nc(N[C@@H]4CCOC[C@@H]4N)c(F)cc3C(N)=O)ccc21` [Example 2-348, 6-(((3R,4R)-3-aminotetrahydro-2H-pyran-4-yl)amino)-2-((3-(difluoromethoxy)-1-methyl-1H-indazol-5-yl)amino)-5-fluoronicotinamide]: the IC50 was less than 10 nM in test [1], 130 to 200 nM in test [3] and less than 1000 nM in test [4]. The change in vivo at 50 mg/kg in test [2] is not below 50%.

As for `C[C@H](N)[C@H](Nc1nc(Nc2cnc(N3CCOCC3)c(F)c2)c(C(N)=O)cc1F)C1CCC1` [Example 2-77, 6-(((1R,2S)-2-amino-1-cyclobutylpropyl)amino)-5-fluoro-2-((5-fluoro-6-morpholinopyridin-3-yl)amino)nicotinamide], the results for the IC50 in test [1], in test [3] and in test [4] were 10 to 50 nM, 130 to 200 nM and less than 1000 nM, respectively. Moreover, in test [2], the change in vivo at 50 mg/kg was not below 50%.

For `CC[C@H](N)[C@H](Nc1nc(Nc2cnc(C)c(-n3nccn3)c2)c(C(N)=O)cc1F)C1CC1` [Example 2-358, 6-(((1R,2S)-2-amino-1-cyclopropylbutyl)amino)-5-fluoro-2-((6-methyl-5-(2H-1,2,3-triazol-2-yl)pyridin-3-yl)amino)nicotinamide], the IC50 in test [1] lay in the range of 10 to 50 nM; in test [4], 1000 to 3000 nM. Besides, the change in vivo at 50 mg/kg in test [2] is not below 50%.

`C[C@H](N)[C@H](Nc1nc(Nc2cc(F)c3c(c2)c(N(C)C)nn3C)c(C(N)=O)cc1F)C1CCC1` [Example 2-192, 6-(((1R,2S)-2-amino-1-cyclobutylpropyl)amino)-2-((3-(dimethylamino)-7-fluoro-1-methyl-1H-indazol-5-yl)amino)-5-fluoronicotinamide]: the IC50 in test [1] is less than 10 nM; in test [4], 1000 to 3000 nM. The change in vivo at 50 mg/kg in test [2] was not below 50%.

Turning to `C[C@H](N)[C@H](Nc1nc(Nc2ccc3c(c2)c(N(C)C)nn3C)c(C(N)=O)cc1F)C1CCC1` [Example 2-89, 6-(((1R,2S)-2-amino-1-cyclobutylpropyl)amino)-2-((3-(dimethylamino)-1-methyl-1H-indazol-5-yl)amino)-5-fluoronicotinamide], the IC50 is less than 10 nM in test [1] and 1000 to 3000 nM in test [4]. The change in vivo at 50 mg/kg in test [2] was not below 50%.

As for `C[C@H](N)[C@@H](CC1CC1)Nc1nc(Nc2ccc3c(c2)c(N(C)C)nn3C)c(C(N)=O)cc1F` [Example 2-2, 6-(((2R,3S)-3-amino-1-cyclopropylbutan-2-yl)amino)-2-((3-(dimethylamino)-1-methyl-1H-indazol-5-yl)amino)-5-fluoronicotinamide], the IC50 in test [1] was less than 10 nM; in test [4], less than 1000 nM. In test [2], the change in vivo at 50 mg/kg is not below 50%.

As for `CCn1ncc2cc(Nc3nc(N[C@@H]4CCOC[C@@H]4N)c(F)cc3C(N)=O)ccc21` [Example 2-326, 6-(((3R,4R)-3-aminotetrahydro-2H-pyran-4-yl)amino)-2-((1-ethyl-1H-indazol-5-yl)amino)-5-fluoronicotinamide], the figures for the IC50 in test [1] and in test [3] were less than 10 nM and less than 65 nM, respectively. Also, the change in vivo at 50 mg/kg in test [2] is not below 50%.

In the case of `NC(=O)c1cc(F)c(N[C@@H]2CCCC[C@@H]2N)nc1Nc1cncc(-n2cc(Cl)cn2)c1` [Example 2-483, 6-(((1R,2S)-2-aminocyclohexyl)amino)-2-((5-(4-chloro-1H-pyrazol-1-yl)pyridin-3-yl)amino)-5-fluoronicotinamide], the IC50 in test [1] is less than 10 nM. Further, the change in vivo at 50 mg/kg in test [2] is not below 50%.

`COCCn1nc(OC(F)F)c2cc(Nc3nc(N[C@@H]4CCOC[C@@H]4N)c(F)cc3C(N)=O)ccc21` [Example 2-352, 6-(((3R,4R)-3-aminotetrahydro-2H-pyran-4-yl)amino)-2-((3-(difluoromethoxy)-1-(2-methoxyethyl)-1H-indazol-5-yl)amino)-5-fluoronicotinamide]: the IC50 in test [1] is less than 10 nM; in test [4] it was less than 1000 nM. In test [2], the change in vivo at 50 mg/kg is not below 50%.

As for `COCCn1ncc2c(Nc3nc(N[C@@H]4CCOC[C@@H]4N)c(F)cc3C(N)=O)cccc21` [Example 2-331, 6-(((3R,4R)-3-aminotetrahydro-2H-pyran-4-yl)amino)-5-fluoro-2-((1-(2-methoxyethyl)-1H-indazol-4-yl)amino)nicotinamide], the IC50 in test [1] is less than 10 nM; in test [4], 1000 to 3000 nM. The change in vivo at 50 mg/kg in test [2] was not below 50%.
